What all share (assay type): biochemical
One experiment addresses PI3K γ (Homo sapiens (Human), UniProt P48736). Description: PI 3-Kinase (human) HTRF assay, p110γ. In general terms: TR-FRET usually uses a lanthanide donor and a delayed reading to cut background.
For a further experiment, the target named is PI3K β (Homo sapiens (Human), UniProt P42338). Description: PI 3-Kinase (human) HTRF assay, p110β/p85α.
The next experiment concerns the target mTORC (Homo sapiens (Human), UniProt P42345). Description: mTOR inhibition assay (radiometric or LanthaScreen TR-FRET).
Another experiment addresses PI3K α (Homo sapiens (Human), UniProt P42336). The experiment is described as follows: PI 3-Kinase (human) HTRF assay, p110α/p85α.
Experiment [1] in a line: PI 3-Kinase (human) HTRF assay, p110δ/p85α. To be noted: read-out: PI3K γ IC50.
Another experiment concerns the target PI3K δ (Homo sapiens (Human), UniProt O00329). The experiment is described as follows: PI 3-Kinase (human) HTRF assay, p110δ/p85α.

pIC50: −log10 of the molar value. Where two headings read alike, the source gives them in different places.

mTORC, sequence (P42345 1360-2549): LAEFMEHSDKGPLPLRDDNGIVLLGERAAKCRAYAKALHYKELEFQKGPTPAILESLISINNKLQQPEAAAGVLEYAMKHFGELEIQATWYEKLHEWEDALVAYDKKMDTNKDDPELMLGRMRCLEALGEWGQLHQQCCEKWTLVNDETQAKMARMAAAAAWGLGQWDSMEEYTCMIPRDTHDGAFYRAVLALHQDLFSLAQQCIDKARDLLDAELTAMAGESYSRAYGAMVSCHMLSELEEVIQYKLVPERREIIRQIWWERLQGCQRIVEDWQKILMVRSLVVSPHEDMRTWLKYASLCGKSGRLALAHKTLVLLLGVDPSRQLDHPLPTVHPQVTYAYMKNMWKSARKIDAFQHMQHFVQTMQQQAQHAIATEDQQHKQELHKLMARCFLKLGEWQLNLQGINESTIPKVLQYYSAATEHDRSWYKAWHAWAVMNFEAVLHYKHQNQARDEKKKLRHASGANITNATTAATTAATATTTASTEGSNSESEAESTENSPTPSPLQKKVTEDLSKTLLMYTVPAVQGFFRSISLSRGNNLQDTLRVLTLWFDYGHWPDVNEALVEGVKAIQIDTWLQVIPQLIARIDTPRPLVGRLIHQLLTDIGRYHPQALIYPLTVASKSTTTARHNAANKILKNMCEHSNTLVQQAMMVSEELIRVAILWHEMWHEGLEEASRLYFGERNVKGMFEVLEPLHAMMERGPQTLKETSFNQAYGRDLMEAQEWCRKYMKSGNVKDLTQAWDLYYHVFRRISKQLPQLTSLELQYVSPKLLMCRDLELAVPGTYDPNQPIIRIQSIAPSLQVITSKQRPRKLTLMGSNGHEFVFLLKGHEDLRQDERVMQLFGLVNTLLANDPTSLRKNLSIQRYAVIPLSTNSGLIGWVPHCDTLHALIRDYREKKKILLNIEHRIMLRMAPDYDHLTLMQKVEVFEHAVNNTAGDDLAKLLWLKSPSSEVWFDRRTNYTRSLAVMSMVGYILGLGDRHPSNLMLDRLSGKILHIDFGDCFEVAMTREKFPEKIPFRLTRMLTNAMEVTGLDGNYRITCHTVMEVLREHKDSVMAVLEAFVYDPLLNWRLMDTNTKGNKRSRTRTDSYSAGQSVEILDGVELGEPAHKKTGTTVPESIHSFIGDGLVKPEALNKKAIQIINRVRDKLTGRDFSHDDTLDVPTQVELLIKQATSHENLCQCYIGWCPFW
PI3K α, sequence (P42336 whole entry): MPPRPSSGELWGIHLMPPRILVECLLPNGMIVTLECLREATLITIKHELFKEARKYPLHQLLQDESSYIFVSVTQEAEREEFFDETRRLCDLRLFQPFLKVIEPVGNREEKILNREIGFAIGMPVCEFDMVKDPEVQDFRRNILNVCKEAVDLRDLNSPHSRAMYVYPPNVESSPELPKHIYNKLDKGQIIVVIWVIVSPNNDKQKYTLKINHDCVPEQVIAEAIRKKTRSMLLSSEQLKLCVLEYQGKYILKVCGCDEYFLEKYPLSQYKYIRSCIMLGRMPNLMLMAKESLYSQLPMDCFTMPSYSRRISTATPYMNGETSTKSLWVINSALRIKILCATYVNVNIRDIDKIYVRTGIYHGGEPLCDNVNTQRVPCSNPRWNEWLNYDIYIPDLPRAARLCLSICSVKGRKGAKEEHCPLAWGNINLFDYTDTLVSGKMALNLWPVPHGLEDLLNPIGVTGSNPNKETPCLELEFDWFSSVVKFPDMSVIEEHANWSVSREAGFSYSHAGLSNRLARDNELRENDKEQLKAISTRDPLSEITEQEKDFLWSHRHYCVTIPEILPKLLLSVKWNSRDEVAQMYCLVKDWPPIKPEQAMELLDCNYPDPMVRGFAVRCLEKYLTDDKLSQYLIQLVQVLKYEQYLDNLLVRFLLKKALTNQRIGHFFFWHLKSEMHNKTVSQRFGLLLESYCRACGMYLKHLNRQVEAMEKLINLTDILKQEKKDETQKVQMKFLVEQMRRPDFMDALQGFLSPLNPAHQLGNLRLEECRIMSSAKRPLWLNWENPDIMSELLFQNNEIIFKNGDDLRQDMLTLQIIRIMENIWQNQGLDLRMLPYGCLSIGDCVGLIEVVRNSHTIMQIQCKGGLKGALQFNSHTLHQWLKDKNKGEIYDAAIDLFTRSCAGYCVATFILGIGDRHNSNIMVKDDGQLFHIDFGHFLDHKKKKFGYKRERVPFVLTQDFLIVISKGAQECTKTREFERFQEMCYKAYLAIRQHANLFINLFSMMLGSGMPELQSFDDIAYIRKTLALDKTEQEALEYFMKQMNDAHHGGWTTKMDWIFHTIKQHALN
PI3K α, sequence (P27986 whole entry partner): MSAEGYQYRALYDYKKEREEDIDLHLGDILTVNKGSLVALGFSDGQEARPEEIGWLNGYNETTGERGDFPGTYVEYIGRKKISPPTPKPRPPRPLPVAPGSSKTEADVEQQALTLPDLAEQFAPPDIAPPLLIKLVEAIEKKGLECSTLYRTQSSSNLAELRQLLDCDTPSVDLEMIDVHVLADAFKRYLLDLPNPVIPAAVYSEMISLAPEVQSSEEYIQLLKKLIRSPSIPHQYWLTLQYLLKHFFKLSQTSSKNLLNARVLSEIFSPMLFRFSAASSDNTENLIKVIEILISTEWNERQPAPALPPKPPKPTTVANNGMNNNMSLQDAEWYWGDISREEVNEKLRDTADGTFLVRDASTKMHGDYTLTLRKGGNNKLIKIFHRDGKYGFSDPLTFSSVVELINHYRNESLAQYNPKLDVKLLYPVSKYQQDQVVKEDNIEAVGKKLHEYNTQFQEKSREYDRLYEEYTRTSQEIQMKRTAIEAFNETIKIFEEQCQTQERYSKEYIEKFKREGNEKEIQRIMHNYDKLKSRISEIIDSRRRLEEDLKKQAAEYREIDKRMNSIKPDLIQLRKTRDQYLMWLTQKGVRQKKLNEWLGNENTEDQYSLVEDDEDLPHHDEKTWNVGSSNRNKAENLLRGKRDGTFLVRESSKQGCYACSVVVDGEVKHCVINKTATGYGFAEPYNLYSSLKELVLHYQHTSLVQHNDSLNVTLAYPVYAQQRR
PI3K β, sequence (P42338 whole entry): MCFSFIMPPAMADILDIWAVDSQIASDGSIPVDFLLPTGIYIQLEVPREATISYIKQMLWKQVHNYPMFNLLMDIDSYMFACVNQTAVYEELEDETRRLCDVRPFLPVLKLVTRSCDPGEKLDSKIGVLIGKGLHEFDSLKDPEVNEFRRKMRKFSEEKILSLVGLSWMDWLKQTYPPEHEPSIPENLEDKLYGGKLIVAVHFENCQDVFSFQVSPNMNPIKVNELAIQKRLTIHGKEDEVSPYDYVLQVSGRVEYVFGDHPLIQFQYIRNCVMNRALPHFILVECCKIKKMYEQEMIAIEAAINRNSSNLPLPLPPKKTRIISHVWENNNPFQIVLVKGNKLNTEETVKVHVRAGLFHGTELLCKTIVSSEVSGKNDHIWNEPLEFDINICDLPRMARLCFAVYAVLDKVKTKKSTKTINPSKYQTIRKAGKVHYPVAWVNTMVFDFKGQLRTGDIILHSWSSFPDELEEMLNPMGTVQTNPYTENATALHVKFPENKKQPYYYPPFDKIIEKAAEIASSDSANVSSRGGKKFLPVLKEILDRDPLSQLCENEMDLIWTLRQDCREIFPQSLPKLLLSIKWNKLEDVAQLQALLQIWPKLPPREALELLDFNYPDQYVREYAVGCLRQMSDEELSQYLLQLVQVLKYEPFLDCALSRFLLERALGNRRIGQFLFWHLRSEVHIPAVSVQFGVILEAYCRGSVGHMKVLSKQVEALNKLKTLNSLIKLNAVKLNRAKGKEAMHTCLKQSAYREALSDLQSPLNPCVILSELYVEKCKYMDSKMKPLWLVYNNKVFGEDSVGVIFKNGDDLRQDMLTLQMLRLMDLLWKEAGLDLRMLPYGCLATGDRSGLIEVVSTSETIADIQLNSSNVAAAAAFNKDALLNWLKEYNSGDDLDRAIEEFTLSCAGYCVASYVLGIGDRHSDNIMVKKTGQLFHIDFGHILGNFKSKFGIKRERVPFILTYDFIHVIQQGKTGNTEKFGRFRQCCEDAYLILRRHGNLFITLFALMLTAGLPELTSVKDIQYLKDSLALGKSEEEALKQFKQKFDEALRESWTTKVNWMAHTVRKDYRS
PI3K β, sequence (P27986 whole entry partner): as the sequence (P27986 whole entry partner) above
Procedure for PI3K α: (§1) An exemplary system is PI 3-Kinase (human) HTRF™ Assay from Upstate. […] Briefly, the assay is a time resolved FRET assay that indirectly measures PIP3 product formed by the activity of a PI3-K. The kinase reaction is performed in a microtitre plate (e.g., a 384 well microtitre plate). The total reaction volume is approximately 20 ul per well. In the first step, each well receives 2 ul of test compound in 20% dimethylsulphoxide resulting in a 2% DMSO final concentration. Next, approximately 14.5 ul of a kinase/PIP2 mixture (diluted in 1× reaction buffer) is added per well for a final concentration of 0.25-0.3 ug/ml kinase and 10 μM PIP2. The plate is sealed and incubated for 15 minutes at room temperature. To start the reaction, 3.5 ul of ATP (diluted in 1× reaction buffer) is added per well for a final concentration of 10 μM ATP. The plate is sealed and incubated for 1 hour at room temperature. The reaction is stopped by adding 5 ul of Stop Solution per well and then 5 ul of Detection Mix is added per well. The plate is sealed, incubated for 1 hour at room temperature, and then read on an appropriate plate reader. Data is analyzed and IC50s are generated using GraphPad Prism 5. For PI3K α, β, δ, and γ, the nM concentration of inhibitor to reach IC50 is provided.
Procedure for PI3K β: as §1

Take `Nc1nc2cc(-c3ccc4ncc(C(=O)N[C@H]5CC[C@H](O)CC5)n4c3)ccc2o1`: the pIC50 (commonly the negative decadic logarithm of the IC50, by convention in mol/L) is more than 7.00 at PI3K γ (read-out: PI3K γ IC50), more than 5.00 against PI3K β and less than 5.00 at mTORC.

In the case of `C[C@H]1CN(C2CN(c3cnc4ccc(-c5ccc6oc(N)nc6c5)cc4n3)C2)CCN1`, the pIC50 is more than 7.00 at PI3K α; less than 5.00 on PI3K γ (read-out: PI3K δ IC50); more than 5.00 at PI3K β; less than 5.00 on mTORC; more than 5.00 in experiment [1].

As to `COC(=O)N1CCC(n2ncc3c(N4CCOCC4)nc(-c4ccc5oc(N)nc5c4)nc32)CC1`, the pIC50 against PI3K α was more than 6.00; on PI3K γ (read-out: PI3K δ IC50), less than 5.00; against PI3K β, more than 5.00; against mTORC it was more than 6.00; in experiment [1] it was less than 5.00.

Regarding `Nc1nc2cc(-c3ccc4ncc(N5CC(N6CCN(CC7CC7)CC6)C5)nc4c3)ccc2o1`, the pIC50 is more than 7.00 against PI3K α; less than 5.00 at PI3K γ (read-out: PI3K δ IC50); more than 5.00 on PI3K β; less than 5.00 against mTORC; more than 5.00 in experiment [1].

For the compound `CC(=O)Nc1ncc(-c2ccc3oc(N)nc3c2)s1`, the negative logarithm of the IC50 (pIC50) was more than 5.00 at PI3K α; more than 5.00 at PI3K γ (read-out: PI3K δ IC50); less than 5.00 against PI3K β; more than 5.00 on mTORC; more than 5.00 in experiment [1].

`Nc1nc2cc(-c3cccc4[nH]nc(N)c34)ccc2o1`: the pIC50 against PI3K α, at PI3K γ (read-out: PI3K δ IC50), on PI3K β and against mTORC was less than 5.00 throughout.

On to `COc1ncc(-c2ccc3ncc(C(=O)N4CCOCC4)n3c2)cc1NS(=O)(=O)c1ccc(F)cc1F`, for which the pIC50 at PI3K α is more than 7.00; at PI3K γ (read-out: PI3K δ IC50) it was more than 7.00; against PI3K β, more than 7.00; at mTORC it was more than 6.00; in experiment [1], more than 7.00.

As for `CS(=O)(=O)Nc1cc(-c2ccc3ncc(C(=O)N4CCOCC4)n3c2)cnc1Cl`, the negative logarithm of the IC50 (pIC50) (against PI3K α; at PI3K γ (read-out: PI3K δ IC50); on PI3K β; on mTORC; in experiment [1]) was more than 7.00 in each case.

As for `Cc1ccn(C2CN(c3cnc4ccc(-c5ccc6oc(N)nc6c5)cc4n3)C2)n1`, the pIC50 is more than 7.00 against PI3K α; more than 5.00 at PI3K γ (read-out: PI3K δ IC50); more than 5.00 at PI3K β; less than 5.00 at mTORC; more than 5.00 in experiment [1].

In the case of `CN1CCN(C2CN(c3cnc4ccc(-c5ccc6oc(N)nc6c5)cc4n3)C2)CC1=O`, the pIC50 against PI3K α was more than 7.00; on PI3K γ (read-out: PI3K δ IC50), more than 6.00; against PI3K β, more than 5.00; against mTORC, less than 5.00; in experiment [1] it was more than 5.00.

`CN1CCN(C2CN(C(=O)c3cnc4ccc(-c5ccc6oc(N)nc6c5)cn34)C2)CC1`: the negative logarithm of the IC50 (pIC50) was more than 7.00 against PI3K α; less than 5.00 on PI3K γ (read-out: PI3K δ IC50); less than 5.00 against PI3K β; more than 5.00 at mTORC; more than 5.00 in experiment [1].

Consider `Cc1nccn1C1CN(c2cnc3ccc(-c4ccc5oc(N)nc5c4)cc3n2)C1`, for which the negative-log IC50 (pIC50) is more than 7.00 at PI3K α; more than 5.00 on PI3K γ (read-out: PI3K δ IC50); more than 5.00 against PI3K β; more than 5.00 against mTORC; more than 5.00 in experiment [1].

On to `Nc1nc2cc(-c3ccc4ncc(N5CC[C@H](O)C5)nc4c3)ccc2o1`, for which the pIC50 against PI3K α is more than 7.00; on PI3K γ (read-out: PI3K δ IC50) it was more than 6.00; at PI3K β, more than 6.00; against mTORC, more than 5.00; in experiment [1] it was less than 5.00.

As for `CC1(C)CN(C2CN(c3cnc4ccc(-c5ccc6oc(N)nc6c5)cc4n3)C2)CCN1`, the negative logarithm of the IC50 (pIC50) at PI3K α is more than 7.00; at PI3K γ (read-out: PI3K δ IC50), more than 6.00; at PI3K β it was more than 6.00; at mTORC, more than 7.00; in experiment [1], more than 6.00.

Take `CCN1CCN(C2CN(c3cnc4ccc(-c5ccc6oc(N)nc6c5)cc4n3)C2)CC1`: the negative-log IC50 (pIC50) is more than 7.00 at PI3K α; more than 5.00 at PI3K γ (read-out: PI3K δ IC50); more than 6.00 at PI3K β; less than 5.00 against mTORC; more than 6.00 in experiment [1].

With `CC(=O)Nc1cn2cc(-c3ccc4oc(N)nc4c3)ccc2n1`, the pIC50 was more than 7.00 on PI3K α; more than 7.00 on PI3K γ (read-out: PI3K δ IC50); more than 6.00 against PI3K β; more than 6.00 against mTORC; more than 7.00 in experiment [1].

For the compound `Nc1ncnc2ccc(-c3ccc4nccc(-c5ccncc5)c4c3)cc12` [Compound 8], the pIC50 is more than 5.00 against PI3K α, more than 6.00 on PI3K γ (read-out: PI3K γ IC50), less than 5.00 against PI3K β and less than 5.00 against mTORC.

Turning to `CC(C)N1CCN(C2CN(c3cnc4ccc(-c5ccc6oc(N)nc6c5)cc4n3)C2)CC1`, the negative-log IC50 (pIC50) was more than 7.00 against PI3K α; more than 5.00 at PI3K γ (read-out: PI3K δ IC50); more than 5.00 at PI3K β; less than 5.00 at mTORC; more than 5.00 in experiment [1].

Consider `Nc1ncc2cc(-c3ccc4nccc(-c5ccncc5)c4c3)ccc2n1` [Compound 9], for which the pIC50 was more than 6.00 at PI3K α, more than 6.00 on PI3K γ (read-out: PI3K γ IC50), more than 5.00 at PI3K β and less than 5.00 on mTORC.

As to `C[C@@H]1CN(c2cnc3ccc(-c4ccc5oc(N)nc5c4)nc3c2)CCN1`, the pIC50 is more than 7.00 on PI3K α, more than 5.00 at PI3K γ (read-out: PI3K γ IC50), more than 6.00 against PI3K β and less than 5.00 at mTORC.

For `C[C@@H]1CN(C(=O)C2CN(c3cnc4ccc(-c5ccc6oc(N)nc6c5)cc4n3)C2)CCN1`, the pIC50 at PI3K α was more than 7.00; at PI3K γ (read-out: PI3K δ IC50) it was more than 6.00; against PI3K β it was more than 5.00; against mTORC, more than 5.00; in experiment [1] it was more than 6.00.

Take `Nc1nc2cc(-c3ccc4ncc(N5CC(n6cccn6)C5)nc4c3)ccc2o1`: the pIC50 at PI3K α is more than 7.00; on PI3K γ (read-out: PI3K δ IC50) it was more than 5.00; at PI3K β it was more than 5.00; against mTORC, more than 6.00; in experiment [1] it was less than 5.00.

With `CC(=O)N1CCN(C2CN(c3cnc4ccc(-c5ccc6oc(N)nc6c5)cc4n3)C2)CC1`, the pIC50 against PI3K α is more than 7.00; at PI3K γ (read-out: PI3K δ IC50), more than 6.00; on PI3K β, more than 5.00; against mTORC, less than 5.00; in experiment [1], more than 6.00.

As for `CN1CCN([C@@H]2CCN(c3cnc4ccc(-c5ccc6oc(N)nc6c5)cc4n3)C2)CC1`, the negative-log IC50 (pIC50) against PI3K α was more than 7.00; at PI3K γ (read-out: PI3K δ IC50), less than 5.00; against PI3K β, more than 6.00; against mTORC, more than 5.00; in experiment [1] it was more than 5.00.

As for `CC(C)[C@@H](N)C(=O)N1CCN(c2cnc3ccc(-c4ccc5oc(N)nc5c4)cc3n2)CC1`, the negative logarithm of the IC50 (pIC50) at PI3K α is more than 7.00; on PI3K γ (read-out: PI3K δ IC50) it was more than 6.00; on PI3K β it was more than 6.00; against mTORC it was more than 5.00; in experiment [1], more than 6.00.

As to `CN(C)[C@@H]1CCN(c2cnc3ccc(-c4ccc5oc(N)nc5c4)cc3n2)C1`, the pIC50 against PI3K α was more than 7.00; on PI3K γ (read-out: PI3K δ IC50) it was more than 5.00; at PI3K β it was more than 7.00; at mTORC, more than 6.00; in experiment [1] it was more than 5.00.

As to `O=C(c1cnc2ccc(-c3cnc(Cl)c(NS(=O)(=O)c4ccc(F)cc4F)c3)cn12)N1CCOCC1`, the negative-log IC50 (pIC50) at PI3K α is more than 7.00; on PI3K γ (read-out: PI3K δ IC50), more than 7.00; against PI3K β, more than 7.00; against mTORC, more than 6.00; in experiment [1], more than 7.00.

In the case of `CS(=O)(=O)N1CCN(C2CCN(c3cnc4ccc(-c5ccc6oc(N)nc6c5)cc4n3)CC2)CC1`, the pIC50 at PI3K α was more than 7.00; at PI3K γ (read-out: PI3K δ IC50), more than 6.00; at PI3K β, more than 5.00; against mTORC, more than 5.00; in experiment [1], more than 5.00.

As to `Nc1nc2cc(-c3ccc4ncc(N5CC(C(=O)N6CCN(C7CC7)CC6)C5)nc4c3)ccc2o1`, the pIC50 against PI3K α was more than 7.00; at PI3K γ (read-out: PI3K δ IC50) it was more than 6.00; at PI3K β, more than 5.00; against mTORC it was more than 5.00; in experiment [1], more than 6.00.

`Nc1ncc(-c2ccc3oc(N)nc3c2)cn1`: the pIC50 is less than 5.00 against PI3K α; more than 5.00 at PI3K γ (read-out: PI3K δ IC50); less than 5.00 on PI3K β; less than 5.00 against mTORC; less than 5.00 in experiment [1].

For `Nc1nc2cc(-c3ccc4nc(N)sc4c3)ccc2o1`, the pIC50 is more than 6.00 on PI3K α; more than 6.00 on PI3K γ (read-out: PI3K δ IC50); more than 6.00 against PI3K β; more than 5.00 against mTORC; more than 5.00 in experiment [1].

Turning to `Nc1nc2cc(-c3ccc4ncc(N5CC(N6CCOCC6)C5)nc4c3)ccc2o1`, the negative logarithm of the IC50 (pIC50) was more than 7.00 on PI3K α; more than 5.00 at PI3K γ (read-out: PI3K δ IC50); less than 5.00 against PI3K β; more than 6.00 against mTORC; less than 5.00 in experiment [1].

For the compound `Nc1nc2cc(-c3ccc4oc(N)nc4c3)ccc2o1`, the pIC50 on PI3K α is more than 6.00; at PI3K γ (read-out: PI3K δ IC50), more than 7.00; against mTORC, more than 5.00; in experiment [1], more than 5.00.

As to `C[C@@H]1CN(C2CN(c3cnc4ccc(-c5ccc6oc(N)nc6c5)nc4n3)C2)CCN1`, the pIC50 was more than 7.00 against PI3K α, less than 5.00 at PI3K γ (read-out: PI3K γ IC50), less than 5.00 against PI3K β and less than 5.00 against mTORC.

On to `N#Cc1cnc2ccc(-c3ccc4oc(N)nc4c3)cc2c1Cl`, for which the pIC50 against mTORC is more than 6.00.

`CN1CCN(c2cnc3ccc(-c4ccc5oc(N)nc5c4)cc3n2)CC1`: the pIC50 is more than 7.00 at PI3K α, more than 6.00 on PI3K γ (read-out: PI3K γ IC50), more than 7.00 against PI3K β and less than 5.00 against mTORC.

`Nc1nc2cc(-c3ccc4nc(N)oc4c3)ccc2o1`: the pIC50 at PI3K α is more than 6.00; on PI3K γ (read-out: PI3K δ IC50), more than 7.00; against mTORC, more than 5.00; in experiment [1], more than 6.00.

Regarding `CC(C)Oc1nc(-c2ccc3oc(N)nc3c2)cnc1N`, the pIC50 is more than 5.00 on PI3K α, more than 5.00 at PI3K γ (read-out: PI3K δ IC50), more than 5.00 against PI3K β and more than 6.00 against mTORC.

For `CC(=O)N1CCC(Nc2cnc3ccc(-c4ccc5oc(N)nc5c4)cc3n2)CC1`, the negative logarithm of the IC50 (pIC50) was more than 7.00 against PI3K α, more than 7.00 at PI3K γ (read-out: PI3K γ IC50), more than 5.00 against PI3K β and more than 7.00 at PI3K δ.
